Source: patent publication US7432392B2, “Ester derivatives and medical use thereof” (Japan Tobacco Inc., priority 2003, dated 2008)
pIC50: −log10 of the molar value.

Columns and labels:
[1] = molecular target: T1, Microsomal triglyceride transfer protein (MTP) from bovine liver (Bos taurus, UniProt P55156); experiment: Inhibition of interliposomal triglyceride (TG) transfer activity by MTP; type: biochemical; details: MTP-mediated TG transfer between donor and acceptor liposomes, 37° C., one hour
T1 construct: the purified MTP was used for the test; from tissue; host or cells: bovine liver
T1 sequence (P55156 12-887): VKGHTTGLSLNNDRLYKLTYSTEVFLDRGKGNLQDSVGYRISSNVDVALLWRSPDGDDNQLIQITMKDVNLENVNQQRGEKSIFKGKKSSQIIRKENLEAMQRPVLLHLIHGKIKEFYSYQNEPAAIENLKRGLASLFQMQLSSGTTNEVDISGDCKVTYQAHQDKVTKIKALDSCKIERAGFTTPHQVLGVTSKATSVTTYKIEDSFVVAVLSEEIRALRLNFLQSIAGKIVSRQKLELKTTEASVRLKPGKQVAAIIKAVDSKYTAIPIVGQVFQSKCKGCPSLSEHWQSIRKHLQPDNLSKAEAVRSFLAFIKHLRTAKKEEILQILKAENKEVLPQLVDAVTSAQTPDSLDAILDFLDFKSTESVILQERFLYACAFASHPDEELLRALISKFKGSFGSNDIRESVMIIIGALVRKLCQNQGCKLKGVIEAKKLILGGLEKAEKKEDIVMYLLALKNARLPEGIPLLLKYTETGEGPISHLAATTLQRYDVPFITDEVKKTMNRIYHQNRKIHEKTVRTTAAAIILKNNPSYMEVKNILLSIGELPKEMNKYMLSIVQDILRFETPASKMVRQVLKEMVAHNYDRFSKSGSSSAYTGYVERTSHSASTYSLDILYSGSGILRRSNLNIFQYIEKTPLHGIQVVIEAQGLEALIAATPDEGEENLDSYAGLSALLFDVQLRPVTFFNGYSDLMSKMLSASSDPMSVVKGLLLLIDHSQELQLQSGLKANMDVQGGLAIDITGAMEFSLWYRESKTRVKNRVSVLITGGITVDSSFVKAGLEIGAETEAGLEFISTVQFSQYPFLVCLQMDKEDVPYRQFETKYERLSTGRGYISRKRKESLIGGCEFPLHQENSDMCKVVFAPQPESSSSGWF
T1 sequence (P05307 21-510 partner): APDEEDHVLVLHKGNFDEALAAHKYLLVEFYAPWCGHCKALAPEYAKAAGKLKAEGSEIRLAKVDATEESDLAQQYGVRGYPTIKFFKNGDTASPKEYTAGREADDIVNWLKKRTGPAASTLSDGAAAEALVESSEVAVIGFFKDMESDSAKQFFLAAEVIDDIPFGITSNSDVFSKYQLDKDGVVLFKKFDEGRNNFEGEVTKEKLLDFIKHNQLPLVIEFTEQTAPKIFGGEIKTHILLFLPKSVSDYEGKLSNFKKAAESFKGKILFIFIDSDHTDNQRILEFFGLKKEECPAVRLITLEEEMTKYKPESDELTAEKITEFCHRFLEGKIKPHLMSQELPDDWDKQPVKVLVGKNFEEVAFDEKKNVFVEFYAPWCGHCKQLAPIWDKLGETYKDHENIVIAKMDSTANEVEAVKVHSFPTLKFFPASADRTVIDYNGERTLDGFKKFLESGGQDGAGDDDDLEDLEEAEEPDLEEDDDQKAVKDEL
Method: Microsomal triglyceride transfer protein (MTP) from bovine liver was partially purified in such a way described below. A buffer (50 mM Tris, 250 mM sucrose, 1 mM EDTA, 0.02% NaN3 (pH 7.4)) for making a homogenate preparation was added to bovine liver, and the mixture was homogenated under ice-cooling, then centrifuged at 10,000×g (4° C., 30 minutes) The supernatant was adjusted to pH 5.1 with hydrochloric acid, and stirred for 30 minutes. The solution was further centrifuged at 10,000×g (4° C., 30 minutes), and 1 mM Tris buffer was added to the precipitated residue, and the mixture was adjusted to pH 8.6 with sodium hydroxide. After addition of 2.7 M ammonium sulfate solution, the mixture was stirred for 30 minutes, then centrifuged at 10,000×g (4° C., 40 minutes). The resulting supernatant was served as a crude extraction fraction of MTP and stored at −80° C. under freezing. In its practical use, the crude extraction fraction of MTP was purified by column chromatography on diethylaminoethyl (DEAE) Sepharose using FPLC (Fast Performance Liquid Chromatography) system, and the purified MTP was used for the test.
Small unilamellar-vesicle (SUV) liposome (donor, 0.25 mol % triolein, 5 mol % cardiolipin) labeled with ^14C-triolein and non-labeled SUV liposome (acceptor, 0.25 mol % triolein) were prepared. A fixed amount of donor and acceptor, and MTP were mixed with a sample dissolved in DMSO or with DMSO. The mixture was incubated in a 15 mM Tris hydrochloride buffer (pH 7.4) containing 40 mM sodium chloride, 1 mM EDTA (ethylenediaminetetraacetic acid), 0.02% NaN3 and 0.5% bovine serum albumin at 37° C. for one hour. After completion of the incubation, a suspension of DEAE cellulose (50% v/v) in 15 mM Tris hydrochloride buffer (pH 7.4) was added to the above solution, and the mixture was centrifuged to separate the donor and the acceptor. The radioactivity in the acceptor was measured by liquid scintillation counter. The value obtained by subtracting the radioactivity in the blank from the amount of radioactivity in the acceptor of a DMSO group was determined as MTP-mediated TG transfer activity, and it was compared with the value obtained by subtracting the radioactivity in the blank from the radioactivity in a sample group. The blank was prepared by adding 15 mM Tris-HCl buffer (pH 7.4) in place of MTP. Inhibition rate (%) was calculated from the values obtained according to the following equation.
Inhibition rate (%)=100×(1 minus ((radioactivity of sample group minus radioactivity of blank group)/(radioactivity of DMSO group minus radioactivity of blank group))). 50% Inhibition rate (IC50) was determined on the basis of the above equation.

[2] = system: apolipoprotein B secretion from HepG2 cells; experiment: Inhibition of apolipoprotein B secretion from HepG2 cells; type: cell-based; details: Homo sapiens, about 20 hours incubation, apo B in supernatant by ELISA
Method: HepG2 cells were suspended in Dulbecco's Modified Eagle's Medium (DMEM) (containing 10% fetal bovine serum, 100 units/mL penicillin and 100 μg/mL streptomycin), and placed on a 96-well plate (4×10^4 cells/well), then incubated for 24 hours. After removal of the medium, DMEM was replaced by a medium containing a sample dissolved in DMSO or a medium containing DMSO (concentration of DMSO: 0.5%) and incubation was further performed for about 20 hours, after which the supernatant was recovered, and concentration of apo B in the supernatant was assayed by Enzyme-Linked Immunosorbent Assay (ELISA)
ELISA was carried out as follows. Anti-human apo B monoclonal antibody (0.5 μg/well) diluted with a 50 mM sodium carbonate/sodium bicarbonate buffer was placed in a 96-well plate for ELISA, and allowed to stand at room temperature for 15 hours. After washing the plate, a blocking solution (250 μL/well) was placed in the well, and allowed to stand at room temperature for 1.5 hours. After washing the plate, a standard and a sample (100 μL/well) were placed in the well and allowed to stand at room temperature for 1.5 hours. The standard was prepared by adjusting the concentration of the purified human apo B with the DMEM to 0 to 250 ng/mL. After washing the plate, an anti-human apo B polyclonal antibody labeled with a horse radish peroxidase which was diluted in 1:1000 with DEME (100 μL/well) was added, and allowed to stand at room temperature for 1.5 hours. After washing the plate, 2,2-azinobis(3-ethylbenzothiazoline-6-sulfonic acid) solution (100 μL/well) was placed in the well, and allowed to stand at room temperature for 0.5 hour. The reaction was stopped by addition of 2% oxalic acid (100 μL/well), and absorbency at 405 nm was measured. Concentration of apo B in the sample was calculated on the basis of a standard curve of the standard. Inhibition rate (%) was calculated from the assayed values in accordance with the following equation. Inhibition rate (%)=100×(1 minus (concentration of apo B in sample group/concentration of apo B in DMSO group).
Based on the above equation, 50% inhibition concentration (IC50) was determined.

pIC50 [1]	pIC50 [2]	SMILES	melting point
> 8.00	> 6.00	CCOC(=O)C(COC(=O)Cc1ccc(NC(=O)c2ccccc2-c2ccc(C(F)(F)F)cc2)c(OC(=O)CC)c1)(C(=O)OCC)c1ccccc1 [Example 1-2]	
> 8.00	> 6.00	CCOC(=O)C(COC(=O)Cc1ccc(NC(=O)c2ccccc2-c2ccc(C(F)(F)F)cc2)c(OC(=O)COC)c1)(C(=O)OCC)c1ccccc1 [Example 1-3]	
7.00 to 8.00	> 5.00	CCOC(=O)C(COC(=O)Cc1cccc(NC(=O)c2ccccc2-c2ccc(C(F)(F)F)cc2)c1OC(C)=O)(C(=O)OCC)c1ccccc1 [Example 1-4]	
> 8.00		CCOC(=O)C(CCC(=O)Oc1c(F)cc(NC(=O)c2ccccc2-c2ccc(C(F)(F)F)cc2)c(C(=O)NC)c1F)(C(=O)OCC)c1ccccc1 [Example 3-10]	
> 8.00		CCNC(=O)C(COCC(=O)Oc1ccc(NC(=O)c2ccccc2-c2ccc(C(F)(F)F)cc2)c(C(=O)N(C)C)c1)(C(=O)NCC)c1ccccc1 [Example 3-12]	
6.00 to 7.00		CCNC(=O)C(CCCCC(=O)Oc1c(F)cc(NC(=O)c2ccccc2-c2ccc(C(F)(F)F)cc2)c(C(=O)N(C)C)c1F)(C(=O)NCC)c1cccs1 [Example 3-15]	
> 8.00		CCNC(=O)C(COCCC(=O)Oc1c(F)cc(NC(=O)c2ccccc2-c2ccc(C(F)(F)F)cc2)c(C(=O)N(C)C)c1F)(C(=O)NCC)c1ccccc1 [Example 3-16]	
7.00 to 8.00		CCNC(=O)C(CCCC(=O)Oc1c(F)cc(NC(=O)c2ccccc2-c2ccc(C(F)(F)F)cc2)c(C(=O)N(C)C)c1F)(C(=O)NCC)c1cccs1 [Example 3-17]	
7.00 to 8.00		CCN(C)C(=O)C(CCC(=O)Oc1c(F)cc(NC(=O)c2ccccc2-c2ccc(C(F)(F)F)cc2)c(C(=O)N(C)C)c1F)(C(=O)N(C)CC)c1ccccc1 [Example 3-18]	
6.00 to 7.00		CCN(C)C(=O)C(CCCC(=O)Oc1c(F)cc(NC(=O)c2ccccc2-c2ccc(C(F)(F)F)cc2)c(C(=O)N(C)C)c1F)(C(=O)N(C)CC)c1ccccc1 [Example 3-19]	
> 8.00		CCOC(=O)C(CCC(=O)Oc1c(F)cc(NC(=O)c2ccccc2-c2ccc(C(F)(F)F)cc2)c(C(=O)N(C)C)c1F)(C(=O)OCC)c1cccs1 [Example 3-20]	
> 8.00		CCOC(=O)C(CCC(=O)Oc1c(F)cc(NC(=O)c2ccc(C)cc2-c2ccc(C(F)(F)F)cc2)c(C(=O)N(C)C)c1F)(C(=O)OCC)c1cccs1 [Example 3-21]	
> 8.00		CCOC(=O)C(CCC(=O)Oc1c(F)cc(NC(=O)c2ccc(C)cc2-c2ccc(C(F)(F)F)cc2)c(C(=O)N(C)C)c1F)(C(=O)OCC)c1ccccc1 [Example 3-22]	
> 8.00		CCOC(=O)C(CC(=O)OCc1ccc(NC(=O)c2ccccc2-c2ccc(C(F)(F)F)cc2)c(C(=O)N(C)C)c1)(C(=O)OCC)c1ccccn1 [Example 3-23]	
> 8.00		CCNC(=O)C(COCC(=O)OCc1ccc(NC(=O)c2ccccc2-c2ccc(C(F)(F)F)cc2)c(C(=O)N(C)C)c1)(C(=O)NCC)c1ccccc1 [Example 3-24]	

SMILES	pIC50 [1]	pIC50 [2]	melting point
CCOC(=O)C(COC(=O)COc1ccc(NC(=O)c2ccccc2-c2ccc(C(F)(F)F)cc2)c(C(=O)N(C)C)c1)(C(=O)OCC)c1ccccc1 [Example 3-2, 2-(2-{3-Dimethylcarbamoyl-4-[(4′-trifluoromethylbiphenyl-2-carbonyl)amino]phenoxy}acetoxymethyl)-2-phenylmalonic acid diethyl ester]	> 8.00		132 to 138 °C
